Results from ChEMBL document CHEMBL1132353, “New 4-point pharmacophore method for molecular similarity and diversity applications: overview of the method and applications, including a novel approach to the design of combinatorial libraries containing privileged substructures” (J Med Chem, 1999).

Tests used:
Prothrombin = Prothrombin (Homo sapiens, UniProt P00734)
Description: Inhibitory activity against thrombin

Coagulation factor X = Coagulation factor X (Homo sapiens, UniProt P00742); test: Inhibitory activity against Coagulation factor Xa
Chain of Coagulation factor X (P00742 41-179 limits assumed): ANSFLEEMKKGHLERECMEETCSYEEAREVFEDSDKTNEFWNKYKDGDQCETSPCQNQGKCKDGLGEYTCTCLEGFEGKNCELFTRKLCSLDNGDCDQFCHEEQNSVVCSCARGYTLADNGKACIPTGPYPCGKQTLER
Chain of Coagulation factor X (P00742 235-488 limits assumed): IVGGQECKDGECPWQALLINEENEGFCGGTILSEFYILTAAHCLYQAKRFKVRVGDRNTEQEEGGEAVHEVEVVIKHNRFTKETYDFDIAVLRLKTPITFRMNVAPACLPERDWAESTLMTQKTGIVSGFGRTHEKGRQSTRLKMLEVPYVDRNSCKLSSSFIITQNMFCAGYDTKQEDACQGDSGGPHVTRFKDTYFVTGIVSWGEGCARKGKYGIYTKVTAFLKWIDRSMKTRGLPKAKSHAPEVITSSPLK

Ki (Coagulation factor X)	Compound	Ki (Prothrombin)
–	C[C@H]1CNc2cc(S(=O)(=O)N[C@H](CCCNC(=N)N)C(=O)N3CCCCC3C(=O)O)ccc2C1 (stereo partly drawn)	19 nM
13 nM	CC(=N)N1CCC(Oc2ccc(C(Cc3ccc4ccc(C(=N)N)cc4c3)C(=O)O)cc2)CC1 (stereo not drawn)	–
–	O=S(=O)(Nc1cccc(OCCNc2ccncc2)c1)c1ccccc1	23 nM
